In US20150337276A1, “ENZYME HAVING A NMDA RECEPTOR ANTAGONIST ACTIVITY AND/OR AN ANTICHOLINERGIC ACTIVITY” (priority 2012, published 2015):

Key:
cortical neurons = test: Neurite network density (NF-H labeling) of cortical neurons under basal conditions, potential neurotoxic effect; conditions: enzymes 2.5 μM for 30 hours, glutamate 100 μM for 6 hours
[1] = tested on: glutamate intoxicated-cortical neurons; test: Neurite network density (NF-H labeling) of glutamate-intoxicated cortical neurons, neuroprotective effect; type: cell-based, rat; conditions: intoxicated conditions (glutamate 100 μM, 6 hours)
Experimental: Culture conditions: 37° C., 5% CO2
At DIV9, the reference MK-801 (10 μM) was pre-incubated for 30 minutes before glutamate intoxication. Cortical neurons were then incubated for 6 hours with 100 μM of glutamate in presence or not (intoxicated control) of test compounds, the solvent control or the reference. A control without glutamate (non-intoxicated control) was performed in parallel. All experimental conditions were performed in n=3.
All the images were taken under the same conditions.
Raw data were analyzed with Microsoft Excel® software.

NMDA receptor = test: NMDA current recording by patch clamp (whole cell, voltage clamp -30 mV) in dorsal root ganglia nociceptor neurons; type: cell-based, rat; conditions: for Percentage inhibition of NMDA current: NMDA 250 μM, holding potential -30 mV
Experimental: In one embodiment, the NMDA antagonist activity of the enzyme of the invention is measured by electrophysiology, as shown in Example 3. In one embodiment, said measurement is performed on dorsal root ganglion nociceptor neurons of rats.
The culture conditions of dorsal root ganglia neurons of rats were adapted from Hao and Delmas (J Neurosci. 2010, 6; 30(40)).
NMDA current recordings are performed in neurons of small and medium diameter (nociceptors). Neurons are identified visually and electrophysiologically by measuring their membrane capacitance. […] These neurons express the NMDA receptor in the dorsal root ganglia. Nociceptors are specifically identified by the presence of TTX-resistant Nav1.8 sodium current. Each neuron is tested for the presence upstream of Nav1.8.
NMDA currents are low amplitude currents. Thus, electrical leakage is carefully checked during recording. Infusion or injection of products was performed close to neurons to avoid changes in concentration (dilution effect). Media infusion was extemporaneously daily handled. Products OPN-001 were diluted from stock solutions and stored at 4° C. The data were collected using an Axopatch amplifier 200-B, the Clampex software (PClamp V10, Molecular Device) and stored and analyzed using Clampfit.

With `N[C@@H](CCC(=O)O)C(=O)O` [Glutamate] the “Mean NF-H-positive neurite surface” value (cortical neurons; basal conditions (no glutamate), n=3) was 21503 μm^2 and the “Intoxication (%)” value (cortical neurons; basal conditions, normalized to control) was 34%.

With `C[C@]12N[C@H](Cc3ccccc31)c1ccccc12` [MK801] the “Mean NF-H-positive neurite surface” value ([1]; enzymes 2.5 μM pre-incubated 24 hours, MK801 10 μM pre-incubated 30 minutes, n=3) was 32319 μm^2 and the “Protection (%)” value ([1]; enzymes 2.5 μM, MK801 10 μM) was ~96%.

In the case of `[Cl-].[Cl-].[Zn+2]` [ZnCl2], the “efficiency in inhibiting NMDA current, in words” value (NMDA receptor; 5 nM, alone) is reported as “not efficient”, the “time for the blocking effect on NMDA current to occur, in words” value (NMDA receptor; 50 nM and 500 nM) is reported as “within seconds” and the “inhibition of the NMDA current, trace (FIG. 1B), in words” value (NMDA receptor; 50 nM, 200 μl applied alone, NMDA 250 μM for 80 s) is reported as “inhibits all of the NMDA current”. The “Percentage inhibition of NMDA current” value (NMDA receptor; test substance 5 nM) was 0%, the “Percentage inhibition of NMDA current” value (NMDA receptor; test substance 50 nM, mean of neurons) was 100% and the “Percentage inhibition of NMDA current” value (NMDA receptor; test substance 500 nM, mean of neurons) was 100%.
